Experimental data taken from patent publication US9561232B2, “Low dose noribogaine for treating nicotine addiction and preventing relapse of nicotine use” (priority 2014, dated 2017).
“Also recorded” adds a separate entry of the source. Read-outs that look alike come from different tables or passages of the source.

What was measured:
[1] = Ascending single oral dose pharmacokinetics of noribogaine in healthy volunteers (plasma, urine, LCMSMS); settings: for mean AUC/24 hr / mean AUC/24: fasting conditions, serum
[2] = system: nicotine dependent rats; assay: Nicotine self-administration test; format: in vivo, Sprague-Dawley rats; settings: for inactive lever press during nicotine self-administration: all treatments, repeated measure ANOVA, P>0.05
[3] = system: zebrafish during nicotine withdrawal; format: in vivo
Procedure: A total of 60 adult wild type short-fin zebrafish (˜50:50 male:female ratio) were used in this study. Fish were housed in groups of 20-30 fish per 40-L tank. Tanks were filled with filtered water and maintained at 25° C. Illumination (1000-1100 lx) was provided by ceiling-mounted fluorescent lights on a 12-h cycle (on: 6.00 h, off: 18.00 h) according to the standards of zebrafish care. All fish used in this study were experimentally naïve and fed Tetramin Tropical Flakes (Tetra USA, Blacksburg, Va.) twice a day. Following behavioral testing, the animals were euthanized in 500 mg/L Tricaine (Sigma-Aldrich, St. Louis, Mo.) buffered to pH=7.0. Animal experimentation in this study fully adhered to national and institutional guidelines and regulations.
A 1 mg/L dose of noribogaine (DMX1) was chosen based on pilot experiments and literature reports on effective doses other similar compounds. […] A standard 20-min pre-treatment time was chosen based on experience with a wide range of other neuroactive compounds and the results of pilot studies. This exposure time was also sufficient for provoking physiological (e.g., cortisol and c-fos) responses of zebrafish to multiple drugs. Drug exposure in this study was performed by submerging individual zebrafish in a 1-L plastic beaker for 20 min prior to the testing. The solution was regularly changed after each exposure, to ensure that each fish is exposed to a consistent concentration of noribogaine. Control fish were exposed to noribogaine-free water for the same treatment time, as described above.
Behavioral testing was performed between 11:00 and 15:00 h using tanks with water adjusted to the holding room temperature (25° C.). The study used the novel tank test (NTT) protocol. NTT represents one of the most commonly used neurophenotyping tests for adult zebrafish. To avoid the test battery or handling effects, each assay was performed once, on a separate individual naïve fish each time. Prior to testing, fish were pre-exposed individually in a 1-L plastic beaker for 20 min to either drug-treated or drug-free water. During testing, zebrafish behavior was recorded by two trained observers blind to the treatments, who manually scored different behavioral endpoints (inter- and intra-rater reliability in all experiments>0.85) with subsequent automated analysis of generated traces by Ethovision XT8.5 software (Noldus IT, Wageningen, Netherlands). The NTT, used to assess zebrafish anxiety and locomotion, was a 1.5-L trapezoidal tank (15 cm height×28 cm top×23 cm bottom×7 cm width; Aquatic Habitats, Apopka, Fla.) maximally filled with water and divided into two equal virtual horizontal portions by a line marking the outside walls. Fish were individually pre-exposed to water (water control), chronic nicotine (1 mg/L), repeated withdrawal from chronic nicotine (WD), and repeated withdrawal plus noribogaine (1 mg/L) for 20 min and tested in the standard 5-min NTT.
Zebrafish behavior was recorded by trained observers, scoring the latency to reach the top half of the tank(s), time spent in top(s), number of transitions to top, as well as the number and duration(s) of freezing bouts. Freezing was defined as a total absence of movement, except for the gills and eyes, for >2 s. Trials were also recorded to a computer using a USB webcam (2.0-megapixel, Gigaware, UK) and subsequently analyzed by Ethovision XT8.5, assessing distance traveled (m), velocity (m/s), and meandering endpoints. During manual observation, videos were recorded in MPEG1 format with the maximum sample rate 30 fps for each trial by auto-focusing 2.0 MP USB webcams, placed 25 cm in front of the tanks, and attached to laptop computers. Recorded videos were analyzed with Ethovision XT8.5 software. All environments were calibrated for each arena and the calibration axes were placed to designate the origin (0,0) at the center of each tank. […]

[4] = Pharmacokinetics in opioid-dependent patients (Phase IB study); settings: 60, 120, 180 mg cohorts
[5] = Pupillometry (pupillary miosis) in healthy volunteers; format: in vivo, human
Procedure: Pupillary miosis was assessed by pupillometry.

[6] = QT interval evaluation in opioid-dependent participants; format: in vivo, human; settings: 60, 120, 180 mg, first 24 hours post administration; correlated with serum concentration
Procedure: Patients' QT intervals were evaluated at regular time points throughout the study.

[7] = Treatment emergent adverse events in opioid-dependent participants
[8] = Safety and tolerability of noribogaine in healthy humans
[9] = system: opioid-dependent participants; assay: Efficacy in opioid-dependent participants: time to resumption of OST and COWS/OOWS/SOWS withdrawal scores; format: in vivo, human
Procedure: The efficacy of noribogaine in humans was evaluated in opioid-dependent participants in a randomized, placebo-controlled, double-blind trial. […] See U.S. application Ser. No. 14/214,157, filed Mar. 14, 2014 and Ser. No. 14/346,655, filed Mar. 21, 2014, which are incorporated herein by reference in their entireties.
Three cohorts of nine (9) subjects (6 administered noribogaine and 3 administered placebo in each cohort) were evaluated for tolerability, pharmacokinetics, and efficacy. Cohort 1 received a single dose of 60 mg noribogaine or placebo. Cohort 2 received a single dose of 120 mg noribogaine or placebo. Cohort 3 received a single dose of 180 mg noribogaine or placebo. […] Headaches were frequent in the placebo and 60 mg noribogaine treatment groups, but were attenuated in the 120 mg and 180 mg dose groups.
Patients were evaluated based on the Clinical Opiate Withdrawal Scale (COWS), Subjective Opiate Withdrawal Scale (SOWS), and Objective Opiate Withdrawal Scale (OOWS) scoring systems over the period of time between administration of noribogaine (or placebo) until resumption of OST. These scales are outlined in Guidelines for the Psychosocially Assisted Pharmacological Treatment of Opioid Dependence, World Health Organization, Geneva (2009), Annex 10, which is incorporated herein by reference in its entirety. The scales measure the intensity of withdrawal symptoms, based on clinical, subjective, and objective indicia.

[10] = Cold pressor test in healthy volunteers; format: in vivo, human; settings: ANOVA after adjusting for baseline
Procedure: Analgesic effect was assessed based on duration of hand immersion in ice water and on visual analog scale (VAS) pain scores upon hand removal from the water bath.

[11] = system: habitual smoker; assay: Low dose intranasal noribogaine on smoking craving; format: in vivo, human; settings: nanogram amount absorbed intranasally, during a period of several hours
Text: A habitual smoker intranasally absorbed a nanogram amount of noribogaine hydrochloride. […] The patient was unaware during that period of any nicotine or smoking cravings.

[12] = noribogaine in plasma, across dose groups 3-60 mg
[13] = nicotine withdrawal + 1 mg/L, 20 min immersion, 5-min NTT
[14] = nicotine withdrawal + 1 mg/L, NTT
[15] = nicotine withdrawal + 1 mg/L, vs control, chronic nicotine and nicotine withdrawal groups

In the case of `CC[C@H]1C[C@@H]2C[C@H]3c4[nH]c5ccc(OC6OC(C(=O)O)C(O)C(O)C6O)cc5c4CCN(C2)[C@@H]13` (some centres unmarked) [Noribogaine glucuronide, noribogaine glucuronide], the “time by which detected in plasma of all subjects” value ([1]; 30 mg and 60 mg noribogaine dose groups) is reported as no more than 0.75 h, the “proportion of Cmax and AUC relative to noribogaine” value ([1]; both dose groups (30 mg, 60 mg)) is reported as 3-4% and the “time of peak concentrations after noribogaine dosing” value ([1]; noribogaine glucuronide in plasma, 30 mg and 60 mg dose groups) is reported as 3 to 4 h.

For `CC[C@H]1CC2C[C@H]3c4[nH]c5ccc(O)cc5c4CCN(C2)C13` [Noribogaine], the Tmax ([1]; healthy volunteers, single oral 30 mg noribogaine, fasted, plasma, mean (SD), n = 6, listed as noribogaine free base) was 1.75 h, the Mean half-life estimates [1, 12] was 28 to 50 h and the “time of peak concentrations after oral dosing” value [1, 12] was 2 to 3 h. For the same compound, the “mean AUC/24 hr” value ([1]; single dose of 3 mg noribogaine free base) was 3.1 ng/mL, the “mean AUC/24 hr” value ([1]; single dose of 10 mg noribogaine free base) was 10.6 ng/mL and the “mean AUC/24” value ([1]; single dose of 30 mg noribogaine free base) was 29.2 ng/mL. The “mean AUC/24” value ([1]; single dose of 60 mg noribogaine free base) was 61 ng/mL, the “dose dependence of Cmax and AUC” value ([1]; single oral 3-60 mg) was “increased linearly with dose” and the nicotine infusion ([2]; 12.5 mg/kg orally 2 hours prior to test, P<0.10 vs vehicle) was “A trend of depression of nicotine infusions”. For the same compound, the nicotine infusion ([2]; 25 mg/kg orally 2 hours prior to test, P<0.001 vs vehicle) was “significantly depressed nicotine infusion”, the nicotine infusion ([2]; 50 mg/kg orally 2 hours prior to test, P<0.001 vs vehicle) was “significantly depressed nicotine infusion” and the “inactive lever press during nicotine self-administration” value [2] was “no significant main effect of treatment”. For the same compound, the “anxiolytic-like effects (manual NTT endpoints)” value ([3]; 1 mg/L) was “statistically significant anxiolytic-like effects”, the circling behavior ([3]; 1 mg/L, NTT, unaltered turn angle) was “did not evoke circling behavior” and the “Anxiogenic-like and locomotor effects of repeated nicotine withdrawal” value ([3]; 1 mg/L, acute) was “fully reversed”. The “motor activity (distance traveled and velocity measures)” value ([3]; 1 mg/L, computer-generated NTT endpoints) was “unaltered motor activity”, the “efficacy in pilot experiment” value ([3]; 1 mg/L, dose did not promote locomotor effects) was “sub-maximal efficacy” and the latency to top [3, 13] was “statistically significant decrease”. For the same compound, the transitions to top [3, 13] was “statistically significant increase”, the “transitions to upper half of tank per minute (habituation)” value [3, 13] was “reached values equivalent to the control group at 5 minutes” and the Average velocity [3, 14] was “corrected by noribogaine treatment”. The “Freezing bouts' frequency and duration” value [3, 14] was “reversed that effect in nicotine withdrawal fish and re-established levels to that of the control fish group”, the “Total distance traveled (anxiety-like response of withdrawal group)” value [3, 14] was “corrected by treatment with noribogaine” and the “absolute change in direction (rotation angle)” value [3, 14] was “no difference observed”. For the same compound, the “absolute change in direction of movement per distance moved (FIG. 12, panel G), reduced in withdrawal group” value [3, 14] was “corrected by treatment with noribogaine”, the freezing bouts frequency [3, 14] was “re-established the high bouts due to nicotine withdrawal toward control levels” and the “high-mobility number of events” value [3, 14] was “increase in high-mobility number of events”. For the same compound, the “increase of hi-mobility duration and frequency (factor)” value [3, 14] was roughly 2, the “mobility and immobility endpoints (durations, frequency)” value [3, 14] was “reestablished mobility (mobile and immobile) durations and frequency in nicotine treated fish to control values” and the “relative change in direction; absolute change in direction of movement per distance moved (FIG. 12, panels E and F)” value [3, 14] was “no change was seen”. For the same compound, the “mobility and immobility endpoints (durations, frequency)” value ([3]; nicotine withdrawal + 1 mg/L, NTT, listed as noribogaine) was “control-equivalent values for mobility and immobility endpoints”, the turning rotation rate ([3]; nicotine withdrawal + 1 mg/L, over chronic nicotine and nicotine withdrawal groups) was “slight increase in turning rotation rate” and the average entry duration [3, 15] was “increased average entry duration”. For the same compound, the “time spent in top” value [3, 15] was “Statistically significant increases in the duration of time spent in the top(s) portion of the tank”, the “dose dependence of maximum serum concentration (Cmax)” value [4] was “increased in a dose-dependent manner” and the “pupil diameter, each dose group compared with placebo” value ([5]; ANOVA after adjusting for baseline, 3-60 mg) was “no statistically significant differences”. The pupillary constriction ([5]; healthy volunteers, single oral 3-60 mg) was “no evidence of pupillary constriction”, the “QT interval prolongation (ΔQTcl)” value [6] was “dose-dependent increase in QT interval prolongation” and the Headaches ([7]; 60 mg treatment group) was “frequent”. The Headaches ([7]; 120 mg and 180 mg dose groups) was “attenuated”, the adverse effects observed ([7]; opioid-dependent participants, single 60, 120 or 180 mg) was “Few adverse effects” and the “Dry Mouth” value ([7]; treatment emergent AE, 60 mg, N = 6) was 0. The “number of adverse events reported” value ([8]; 3 mg dose group) was “five adverse events were reported by two subjects”, the “number of adverse events reported” value ([8]; 10 mg dose group) was “one adverse event was reported by single subjects” and the “number of adverse events reported” value ([8]; 30 mg dose group) was “one adverse event was reported by single subjects”. For the same compound, the “intensity of adverse events” value ([8]; all dose groups, all resolved prior to study completion) was “mild-moderate intensity”, the “Adverse events: Mild” value ([8]; healthy volunteers, 3 mg dose) was “Dizziness; also recorded: Epistaxis; also recorded: Headache; also recorded: Back pain” and the “Adverse events: Moderate” value ([8]; healthy volunteers, 3 mg dose) was “Headache”. For the same compound, the “Adverse events: Mild” value ([8]; healthy volunteers, 10 mg dose) was “Headache”, the “Adverse events: Mild” value ([8]; healthy volunteers, 30 mg dose) was “Headache” and the QTcF values ([8]; healthy volunteers, 3-60 mg, at any time) was no more than 500 ms. The “increase in QTcF” value ([8]; one subject, 10 mg, single increase at 24 hours post-dosing) was greater than 60 ms, the “withdrawal symptoms (COWS, OOWS, SOWS), first six hours following dosing” value ([9]; 120 mg) was “generally experienced fewer withdrawal symptoms than the other patients” and the “withdrawal symptoms (COWS, OOWS, SOWS), noribogaine versus placebo” value ([9]; 60, 120, 180 mg, first six hours following dosing) was “Patients administered placebo generally experienced more withdrawal symptoms than patients who were administered noribogaine”. For the same compound, the “average time to resumption of opioids (OST)” value ([9]; single 180 mg dose) was “still longer than untreated patients”, the “VAS pain scores, each dose group compared with placebo” value [10] was “no statistically significant differences” and the “duration of hand immersion, each dose group compared with placebo” value [10] was “no statistically significant differences”.

With `CC[C@@H]1C[C@H]2CC3c4[nH]c5ccc(O)cc5c4CCN(C2)C31.Cl` [noribogaine hydrochloride] the craving to smoke [11] was “any craving to smoke stopped”.

In the case of `c1cnc2cc3c(cc2n1)[C@@H]1CNC[C@H]3C1` [varenicline, Varenicline, reference compound], the “inactive lever press during nicotine self-administration” value [2] is reported as “no significant main effect of treatment”.
